Data from patent publication US20250171437A1 (Agios Pharmaceuticals,Inc., priority 2022, published 2025).

Molecular target: T1, human PAH with the R408W mutation (A375 R408W cells) (Homo sapiens, UniProt P00439, R408W)
T1 construct: expressed in transfected cells
T1 sequence (P00439 1-452 R408W): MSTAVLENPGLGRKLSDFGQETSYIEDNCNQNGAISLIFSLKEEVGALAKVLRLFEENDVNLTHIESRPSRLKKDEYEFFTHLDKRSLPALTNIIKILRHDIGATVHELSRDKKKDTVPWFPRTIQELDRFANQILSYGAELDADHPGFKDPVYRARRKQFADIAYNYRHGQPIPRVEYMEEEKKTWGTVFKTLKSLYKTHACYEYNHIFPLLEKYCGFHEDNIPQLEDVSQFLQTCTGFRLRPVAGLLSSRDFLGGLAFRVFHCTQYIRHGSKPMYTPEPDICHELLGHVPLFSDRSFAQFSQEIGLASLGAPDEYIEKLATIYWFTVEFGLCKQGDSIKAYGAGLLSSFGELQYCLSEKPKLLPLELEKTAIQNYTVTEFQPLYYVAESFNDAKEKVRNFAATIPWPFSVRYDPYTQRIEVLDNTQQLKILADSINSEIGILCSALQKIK
Assay: Cell Based Phenylalanine Flux Assay
Details: A375 R408W cells; 24 hrs with compound, then 20 μM sepiapterin and 800 μM 13C9,15N-Phenylalanine for 4 hours; 13C-Tyrosine by LC-MS; average where tested multiple times
Procedure, shortened: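 Stable R408W PAH A375 cells: 24 h compound pretreatment in duplicate, then 4 h with 800 μM isotope-labelled Phe and 20 μM sepiapterin. Labelled Tyr output by LC-MS; AC50 averaged where repeated.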

AC50 | SMILES
1000 to 5000 nM | COc1ccc2oc([C@H]3c4nc[nH]c4CCN3C(=O)c3nnc(-c4ccccn4)o3)nc2c1 [Example 556, (R)-(4-(5-methoxybenzo[d]oxazol-2-yl)-6,7-dihydro-1H-imidazo[4,5-c]pyridin-5(4H)-yl)(5-(pyridin-2-yl)-1,3,4-oxadiazol-2-yl)methanone]
≤ 500 nM | CC(C)(O)c1nc(C2CC2)c(C(=O)N2CCc3[nH]cnc3[C@H]2c2nc3cc(F)ccc3o2)o1 [Example 557, (S)-(4-cyclopropyl-2-(2-hydroxypropan-2-yl)oxazol-5-yl)(4-(5-fluorobenzo[d]oxazol-2-yl)-6,7-dihydro-1H-imidazo[4,5-c]pyridin-5(4H)-yl)methanone]
1000 to 5000 nM | CC(C)(O)c1nc(C2CC2)c(C(=O)N2CCc3[nH]cnc3[C@@H]2c2nc3cc(F)ccc3o2)o1 [Example 558, (R)-(4-cyclopropyl-2-(2-hydroxypropan-2-yl)oxazol-5-yl)(4-(5-fluorobenzo[d]oxazol-2-yl)-6,7-dihydro-1H-imidazo[4,5-c]pyridin-5(4H)-yl)methanone]
≤ 500 nM | O=C(c1oc(-c2ccncc2)nc1C(F)F)N1CCc2[nH]cnc2[C@@H]1c1nc2cccc(F)c2o1 [Example 559, (R)-(4-(difluoromethyl)-2-(pyridin-4-yl)oxazol-5-yl)(4-(7-fluorobenzo[d]oxazol-2-yl)-6,7-dihydro-1H-imidazo[4,5-c]pyridin-5(4H)-yl)methanone]
≤ 500 nM | O=C(c1oc(-c2ccncc2)nc1C(F)F)N1CCc2[nH]cnc2[C@H]1c1nc2cccc(F)c2o1 [Example 560, (S)-(4-(difluoromethyl)-2-(pyridin-4-yl)oxazol-5-yl)(4-(7-fluorobenzo[d]oxazol-2-yl)-6,7-dihydro-1H-imidazo[4,5-c]pyridin-5(4H)-yl)methanone]
500 to 1000 nM | Cn1nc(C(F)F)nc1C(=O)N1CCc2[nH]cnc2[C@H]1c1nc2ccccc2o1 [Example 561, (S)-(4-(benzo[d]oxazol-2-yl)-6,7-dihydro-1H-imidazo[4,5-c]pyridin-5(4H)-yl)(3-(difluoromethyl)-1-methyl-1H-1,2,4-triazol-5-yl)methanone]
1000 to 5000 nM | Cn1nc(C(F)F)nc1C(=O)N1CCc2[nH]cnc2[C@@H]1c1nc2ccccc2o1 [Example 562, (R)-(4-(benzo[d]oxazol-2-yl)-6,7-dihydro-1H-imidazo[4,5-c]pyridin-5(4H)-yl)(3-(difluoromethyl)-1-methyl-1H-1,2,4-triazol-5-yl)methanone]
≤ 500 nM | O=C(c1ccnn1C(F)F)N1CCc2[nH]cnc2[C@H]1c1nc2ccccc2o1 [Example 563, (S)-(4-(benzo[d]oxazol-2-yl)-6,7-dihydro-1H-imidazo[4,5-c]pyridin-5(4H)-yl)(1-(difluoromethyl)-1H-pyrazol-5-yl)methanone]
1000 to 5000 nM | O=C(c1ccnn1C(F)F)N1CCc2[nH]cnc2[C@@H]1c1nc2ccccc2o1 [Example 564, (R)-(4-(benzo[d]oxazol-2-yl)-6,7-dihydro-1H-imidazo[4,5-c]pyridin-5(4H)-yl)(1-(difluoromethyl)-1H-pyrazol-5-yl)methanone]
500 to 1000 nM | Cc1cccc2nc([C@@H]3c4nc[nH]c4CCN3C(=O)c3nnc(-c4cnn(C)c4)o3)oc12 [Example 565, (S)-(5-(1-methyl-1H-pyrazol-4-yl)-1,3,4-oxadiazol-2-yl)(4-(7-methylbenzo[d]oxazol-2-yl)-6,7-dihydro-1H-imidazo[4,5-c]pyridin-5(4H)-yl)methanone]
1000 to 5000 nM | Cc1cccc2nc([C@H]3c4nc[nH]c4CCN3C(=O)c3nnc(-c4cnn(C)c4)o3)oc12 [Example 566, (R)-(5-(1-methyl-1H-pyrazol-4-yl)-1,3,4-oxadiazol-2-yl)(4-(7-methylbenzo[d]oxazol-2-yl)-6,7-dihydro-1H-imidazo[4,5-c]pyridin-5(4H)-yl)methanone]
≤ 500 nM | Cc1cccc2nc([C@@H]3c4nc[nH]c4CCN3C(=O)c3nnc(-c4ccccn4)o3)oc12 [Example 567, (S)-(4-(7-methylbenzo[d]oxazol-2-yl)-6,7-dihydro-1H-imidazo[4,5-c]pyridin-5(4H)-yl)(5-(pyridin-2-yl)-1,3,4-oxadiazol-2-yl)methanone]
1000 to 5000 nM | Cc1cccc2nc([C@H]3c4nc[nH]c4CCN3C(=O)c3nnc(-c4ccccn4)o3)oc12 [Example 568, (R)-(4-(7-methylbenzo[d]oxazol-2-yl)-6,7-dihydro-1H-imidazo[4,5-c]pyridin-5(4H)-yl)(5-(pyridin-2-yl)-1,3,4-oxadiazol-2-yl)methanone]
≤ 500 nM | Cc1ncoc1C(=O)N1CCc2[nH]cnc2[C@H]1c1nc2cccc(F)c2o1 [Example 569, (S)-(4-(7-fluorobenzo[d]oxazol-2-yl)-6,7-dihydro-1H-imidazo[4,5-c]pyridin-5(4H)-yl)(4-methyloxazol-5-yl)methanone]
1000 to 5000 nM | Cc1ncoc1C(=O)N1CCc2[nH]cnc2[C@@H]1c1nc2cccc(F)c2o1 [Example 570, (R)-(4-(7-fluorobenzo[d]oxazol-2-yl)-6,7-dihydro-1H-imidazo[4,5-c]pyridin-5(4H)-yl)(4-methyloxazol-5-yl)methanone]
≤ 500 nM | CC(C)(O)c1nc(C(F)F)c(C(=O)N2CCc3[nH]cnc3[C@H]2c2nc3cc(Br)cc(F)c3o2)o1 [Example 571, (S)-(4-(5-bromo-7-fluorobenzo[d]oxazol-2-yl)-6,7-dihydro-1H-imidazo[4,5-c]pyridin-5(4H)-yl)(4-(difluoromethyl)-2-(2-hydroxypropan-2-yl)oxazol-5-yl)methanone]
≤ 500 nM | CC(C)(O)c1nc(C(F)F)c(C(=O)N2CCc3[nH]cnc3[C@@H]2c2nc3cc(Br)cc(F)c3o2)o1 [Example 572, (R)-(4-(5-bromo-7-fluorobenzo[d]oxazol-2-yl)-6,7-dihydro-1H-imidazo[4,5-c]pyridin-5(4H)-yl)(4-(difluoromethyl)-2-(2-hydroxypropan-2-yl)oxazol-5-yl)methanone]
≤ 500 nM | O=C(c1ocnc1C(F)F)N1CCc2[nH]cnc2[C@H]1c1nc2cc(Br)cc(F)c2o1 [Example 573, (S)-(4-(5-bromo-7-fluorobenzo[d]oxazol-2-yl)-6,7-dihydro-1H-imidazo[4,5-c]pyridin-5(4H)-yl)(4-(difluoromethyl)oxazol-5-yl)methanone]
≤ 500 nM | O=C(c1ocnc1C(F)F)N1CCc2[nH]cnc2[C@@H]1c1nc2cc(Br)cc(F)c2o1 [Example 574, (R)-(4-(5-bromo-7-fluorobenzo[d]oxazol-2-yl)-6,7-dihydro-1H-imidazo[4,5-c]pyridin-5(4H)-yl)(4-(difluoromethyl)oxazol-5-yl)methanone]
1000 to 5000 nM | O=C(c1cnco1)N1CCc2[nH]cnc2[C@H]1c1nc2cc(F)cc(F)c2o1 [Example 575, (S)-(4-(5,7-difluorobenzo[d]oxazol-2-yl)-6,7-dihydro-1H-imidazo[4,5-c]pyridin-5(4H)-yl)(oxazol-5-yl)methanone]
1000 to 5000 nM | O=C(c1cnco1)N1CCc2[nH]cnc2[C@@H]1c1nc2cc(F)cc(F)c2o1 [Example 576, (R)-(4-(5,7-difluorobenzo[d]oxazol-2-yl)-6,7-dihydro-1H-imidazo[4,5-c]pyridin-5(4H)-yl)(oxazol-5-yl)methanone]
500 to 1000 nM | Cn1nc(C(F)F)nc1C(=O)N1CCc2[nH]cnc2[C@H]1c1nc2cc(F)cc(F)c2o1 [Example 577, (S)-(4-(5,7-difluorobenzo[d]oxazol-2-yl)-6,7-dihydro-1H-imidazo[4,5-c]pyridin-5(4H)-yl)(3-(difluoromethyl)-1-methyl-1H-1,2,4-triazol-5-yl)methanone]
1000 to 5000 nM | Cn1nc(C(F)F)nc1C(=O)N1CCc2[nH]cnc2[C@@H]1c1nc2cc(F)cc(F)c2o1 [Example 578, (R)-(4-(5,7-difluorobenzo[d]oxazol-2-yl)-6,7-dihydro-1H-imidazo[4,5-c]pyridin-5(4H)-yl)(3-(difluoromethyl)-1-methyl-1H-1,2,4-triazol-5-yl)methanone]
≤ 500 nM | O=C(c1nnc(-c2ccccn2)o1)N1CCc2[nH]cnc2[C@@H]1c1nc2cc(F)cc(F)c2o1 [Example 579, (R)-(4-(5,7-difluorobenzo[d]oxazol-2-yl)-6,7-dihydro-1H-imidazo[4,5-c]pyridin-5(4H)-yl)(5-(pyridin-2-yl)-1,3,4-oxadiazol-2-yl)methanone]
500 to 1000 nM | O=C(c1nnc(-c2ccccn2)o1)N1CCc2[nH]cnc2[C@H]1c1nc2cc(F)cc(F)c2o1 [Example 580, (S)-(4-(5,7-difluorobenzo[d]oxazol-2-yl)-6,7-dihydro-1H-imidazo[4,5-c]pyridin-5(4H)-yl)(5-(pyridin-2-yl)-1,3,4-oxadiazol-2-yl)methanone]
≤ 500 nM | Cn1cc(-c2nnc(C(=O)N3CCc4[nH]cnc4[C@H]3c3nc4ccccc4o3)o2)cn1 [Example 581, (S)-(4-(benzo[d]oxazol-2-yl)-6,7-dihydro-1H-imidazo[4,5-c]pyridin-5(4H)-yl)(5-(1-methyl-1H-pyrazol-4-yl)-1,3,4-oxadiazol-2-yl)methanone]
1000 to 5000 nM | Cn1cc(-c2nnc(C(=O)N3CCc4[nH]cnc4[C@@H]3c3nc4ccccc4o3)o2)cn1 [Example 582, (R)-(4-(benzo[d]oxazol-2-yl)-6,7-dihydro-1H-imidazo[4,5-c]pyridin-5(4H)-yl)(5-(1-methyl-1H-pyrazol-4-yl)-1,3,4-oxadiazol-2-yl)methanone]
